Experimental data taken from article PMC11647902, “Design, Synthesis, and Biological Evaluation of [1,2,5]Oxadiazolo[3,4-b]pyridin-7-ol as Mitochondrial Uncouplers for the Treatment of Obesity and Metabolic Dysfunction-Associated Steatohepatitis” (Journal of Medicinal Chemistry, 2024).

Test system: L6 rat myoblasts
Assay: OCR Seahorse assay (oxygen consumption rate, mitochondrial uncoupling)
Settings: for Emax at 200 µM: L6, read-out: % of BAM15 OCR, L6 myoblasts; for Emax at 200 µM / % of BAM15 OCR: integrated area under OCR dose curve above baseline relative to BAM15 of same experiment; for uncoupling (OCR) activity in words / % of BAM15 OCR / cellular toxicity in OCR assay: L6 myoblasts; for cellular toxicity in OCR assay: at higher concentrations
[1] = Rattus norvegicus, NA = No Activity, highest tested concentration 200 μM
[2] = NA = No Activity, highest tested concentration 200 μM
[3] = OCR in L6 myoblasts, NA = No Activity, highest tested concentration 200 μM

Protocol: With 7 and 9 derivatives in hand, we screened for mitochondrial uncoupling activity as a function of oxygen consumption rate (OCR). […] OCR was measured using an Agilent Seahorse XF24 or XFe96 Analyzer (Agilent Technologies, Santa Clara, CA). L6 myoblasts were seeded in a Seahorse 24 or 96-well tissue culture plate at a density of 3.5 × 10^4 cells/well. The cells were then allowed to adhere overnight. […] Compounds were injected during the assay, and OCR was measured using 2 min measurement periods. Cells were treated with a single drug concentration per well and measured over a 90 min period. Two wells were used per condition and, where applicable, results from multiple plates were averaged together. The first three measurements after injection for each concentration were averaged to produce a dose curve. […] AUC values were also calculated using the same software.

Molecule | EC50 (Rattus norvegicus, L6) | Emax at 200 µM [1] | other results
Oc1c(Nc2ccc3ccccc3c2)cnc2nonc12 [7ax, 6-(Naphthalen-2-ylamino)-[1,2,5]oxadiazolo[3,4-b]pyridin-7-ol] | 13 ± 1.2 µM | 48% | 
Oc1c(-c2ccc(C(F)(F)F)nc2)cnc2nonc12 [7l, 6-(6-(Trifluoromethyl)pyridin-3-yl)-[1,2,5]oxadiazolo[3,4-b]pyridin-7-ol] |  |  | uncoupling (OCR) activity in words: inactive
6-([1,1′-Biphenyl]-2-ylamino)-[1,2,5]oxadiazolo[3,4-b]pyridin-7-ol [7aj] |  |  | % of BAM15 OCR [2]: 20%; EC50 [3]: 6 ± 1.2 µM
Oc1c(-c2cccc(Cl)c2)cnc2nonc12 [9c, 6-(3-Chlorophenyl)-[1,2,5]oxadiazolo[3,4-b]pyridin-7-ol] | 25 ± 3.1 µM | 61% | 
Oc1c(-c2ccccc2Cl)cnc2nonc12 [9b, 6-(2-Chlorophenyl)-[1,2,5]oxadiazolo[3,4-b]pyridin-7-ol] | 85 ± 16 µM | 49% | 
Oc1c(Nc2c(F)cccc2C(F)(F)F)cnc2nonc12 [7ad, 6-((2-Fluoro-6-(trifluoromethyl)phenyl)amino)-[1,2,5]oxadiazolo[3,4-b]pyridin-7-ol] | 28 ± 3.9 µM | 55% | 
Oc1c(Nc2ccc(F)c(F)c2F)cnc2nonc12 [7y, 6-((2,3,4-Trifluorophenyl)amino)-[1,2,5]oxadiazolo[3,4-b]pyridin-7-ol] | 44 ± 3.6 µM | 68% | 
CC(C)(C)c1ccc(Nc2cnc3nonc3c2O)cc1 [7e, 6-((4-(tert-Butyl)phenyl)amino)-[1,2,5]oxadiazolo[3,4-b]pyridin-7-ol] | 2 ± 0.4 µM | 7% | 
Oc1c(Nc2cc(C(F)(F)F)c(F)cc2F)cnc2nonc12 [7ae, 6-((2,4-Difluoro-5-(trifluoromethyl)phenyl)amino)-[1,2,5]oxadiazolo[3,4-b]pyridin-7-ol] | 40 ± 4.5 µM | 48% | 
CCc1ccc(Nc2cnc3nonc3c2O)cc1 [7c, 6-((4-Ethylphenyl)amino)-[1,2,5]oxadiazolo[3,4-b]pyridin-7-ol] | 14 ± 1.7 µM | 50% | 
Oc1c(Nc2ccc(-c3cc(C(F)(F)F)cc(C(F)(F)F)c3)cc2)cnc2nonc12 [7aw, 6-((3′,5′-Bis(trifluoromethyl)-[1,1′-biphenyl]-4-yl)amino)-[1,2,5]oxadiazolo[3,4-b]pyridin-7-ol] | 41 ± 4.9 µM | 20% | 
Oc1c(Nc2cc(F)ccc2C(F)(F)F)cnc2nonc12 [7af, 6-((5-Fluoro-2-(trifluoromethyl)phenyl)amino)-[1,2,5]oxadiazolo[3,4-b]pyridin-7-ol] | 25 ± 12 µM | 54% | 
Oc1c(Nc2ccccc2C(F)(F)F)cnc2nonc12 [7q, 6-((2-(Trifluoromethyl)phenyl)amino)-[1,2,5]oxadiazolo[3,4-b]pyridin-7-ol] | 34 ± 4 µM | 57% | 
Oc1c(Nc2ccccc2)cnc2nonc12 [7a, 6-(Phenylamino)-[1,2,5]oxadiazolo[3,4-b]pyridin-7-ol] | 59 ± 3.4 µM | 40% | 
Oc1c(Nc2ccc(F)nc2)cnc2nonc12 [7k, 6-((6-Fluoropyridin-3-yl)amino)-[1,2,5]oxadiazolo[3,4-b]pyridin-7-ol] |  |  | uncoupling (OCR) activity in words: inactive
CC(C)(C#N)c1ccc(Nc2cnc3nonc3c2O)cc1 [7g, 2-(4-((7-Hydroxy-[1,2,5]oxadiazolo[3,4-b]pyridin-6-yl)amino)phenyl)-2-methylpropanenitrile] | > 100 µM | 10% | 
Oc1c(Nc2ccc(F)cc2)cnc2nonc12 [7o, 6-((4-Fluorophenyl)amino)-[1,2,5]oxadiazolo[3,4-b]pyridin-7-ol] | > 100 µM | 32% | 
Oc1c(Nc2ccccc2Cl)cnc2nonc12 [7p, 6-((2-Chlorophenyl)amino)-[1,2,5]oxadiazolo[3,4-b]pyridin-7-ol] | 27 ± 1.9 µM | 69% | 
6-((4-Butoxyphenyl)amino)-[1,2,5]oxadiazolo[3,4-b]pyridin-7-ol [7f] |  |  | % of BAM15 OCR [2]: 20%; EC50 [3]: 6 µM
CCCCc1ccc(Nc2cnc3nonc3c2O)cc1 [7d, 6-((4-Butylphenyl)amino)-[1,2,5]oxadiazolo[3,4-b]pyridin-7-ol] |  | 19% | 
Oc1c(Nc2cccc(Cl)c2F)cnc2nonc12 [7aa, 6-((3-Chloro-2-fluorophenyl)amino)-[1,2,5]oxadiazolo[3,4-b]pyridin-7-ol] | 32 ± 1.9 µM | 68% | 
Oc1c(Nc2cc(F)cc(C(F)(F)F)c2)cnc2nonc12 [7ag, 6-((3-Fluoro-5-(trifluoromethyl)phenyl)amino)-[1,2,5]oxadiazolo[3,4-b]pyridin-7-ol] | 40 ± 0.9 µM | 38% | 

Molecule | EC50 (Rattus norvegicus, L6) | Emax at 200 µM [1] | other results
Oc1c(Nc2ccc(SC(F)(F)F)cc2)cnc2nonc12 [7h, 6-((4-((Trifluoromethyl)thio)phenyl)amino)-[1,2,5]oxadiazolo[3,4-b]pyridin-7-ol] | 6 ± 0.4 µM | 38% | 
Oc1c(Nc2cccc(F)c2F)cnc2nonc12 [7t, 6-((2,3-Difluorophenyl)amino)-[1,2,5]oxadiazolo[3,4-b]pyridin-7-ol] | 64 ± 3.3 µM | 60% | 
Oc1c(Nc2cccc(F)c2)cnc2nonc12 [7n, 6-((3-Fluorophenyl)amino)-[1,2,5]oxadiazolo[3,4-b]pyridin-7-ol] | 51 ± 2.6 µM | 55% | 
Oc1c(Nc2ccc(F)cc2F)cnc2nonc12 [7u, 6-((2,4-Difluorophenyl)amino)-[1,2,5]oxadiazolo[3,4-b]pyridin-7-ol] | 40 ± 1.9 µM | 83% | 
Oc1c(Nc2ccc(-c3ccccc3)cc2F)cnc2nonc12 [7ah, 6-((3-Fluoro-[1,1′-biphenyl]-4-yl)amino)-[1,2,5]oxadiazolo[3,4-b]pyridin-7-ol] | 2 ± 0.5 µM | 10% | 
Oc1c(Nc2ccc(F)c(F)c2)cnc2nonc12 [7x, 6-((3,4-Difluorophenyl)amino)-[1,2,5]oxadiazolo[3,4-b]pyridin-7-ol] | 63 ± 3.7 µM | 55% | 
Oc1c(-c2ccc(Cl)cc2)cnc2nonc12 [9e, 6-(4-Chlorophenyl)-[1,2,5]oxadiazolo[3,4-b]pyridin-7-ol] | 12 ± 0.6 µM | 52% | 
Oc1c(Nc2c(F)c(F)c(F)c(F)c2F)cnc2nonc12 [7z, 6-((Perfluorophenyl)amino)-[1,2,5]oxadiazolo[3,4-b]pyridin-7-ol] | 18 ± 2.4 µM | 50% | 
Oc1c(Nc2c(F)cccc2F)cnc2nonc12 [7w, 6-((2,6-Difluorophenyl)amino)-[1,2,5]oxadiazolo[3,4-b]pyridin-7-ol] | 52 ± 8.8 µM | 54% | 
Oc1c(Nc2ccc(-c3cccc(C(F)(F)F)c3)cc2)cnc2nonc12 [7an, 6-((3′-(Trifluoromethyl)-[1,1′-biphenyl]-4-yl)amino)-[1,2,5]oxadiazolo[3,4-b]pyridin-7-ol] | 0.5 ± 0.1 µM | 25% | cellular toxicity in OCR assay: showed cellular toxicity at higher concentrations
Oc1c(Nc2ccc(-c3ccc(C(F)(F)F)cc3)cc2)cnc2nonc12 [7aq, 6-((4′-(Trifluoromethyl)-[1,1′-biphenyl]-4-yl)amino)-[1,2,5]oxadiazolo[3,4-b]pyridin-7-ol] |  |  | uncoupling (OCR) activity in words: not tolerated; cellular toxicity in OCR assay: exhibited toxicity
Oc1c(Nc2ccccc2F)cnc2nonc12 [7m, 6-((2-Fluorophenyl)amino)-[1,2,5]oxadiazolo[3,4-b]pyridin-7-ol] | 32 ± 1.8 µM | 69% | increase of BAM15 uncoupling capability compared with the nonsubstituted aniline (7m versus 7a): 72%
Oc1c(-c2ccc(-c3ccc(F)cc3)cc2)cnc2nonc12 [9h, 6-(4′-Fluoro-[1,1′-biphenyl]-4-yl)-[1,2,5]oxadiazolo[3,4-b]pyridin-7-ol] |  |  | uncoupling (OCR) activity in words: inactive
Oc1c(Nc2cc(C(F)(F)F)ccc2F)cnc2nonc12 [7ac, 6-((2-Fluoro-5-(trifluoromethyl)phenyl)amino)-[1,2,5]oxadiazolo[3,4-b]pyridin-7-ol] | 11 ± 6.7 µM | 55% | 
Oc1c(-c2ccccc2F)cnc2nonc12 [9a, 6-(2-Fluorophenyl)-[1,2,5]oxadiazolo[3,4-b]pyridin-7-ol] | 27 ± 2.8 µM | 69% | 
Oc1c(Nc2cc(F)ccc2F)cnc2nonc12 [7v, 6-((2,5-Difluorophenyl)amino)-[1,2,5]oxadiazolo[3,4-b]pyridin-7-ol] | 64 ± 5.3 µM | 69% | 
Oc1c(-c2cccc(C(F)(F)F)c2)cnc2nonc12 [9d, 6-(3-(Trifluoromethyl)phenyl)-[1,2,5]oxadiazolo[3,4-b]pyridin-7-ol] | 26 ± 4.5 µM | 59% | cellular toxicity in OCR assay: exhibited cellular toxicity at higher concentrations
Oc1c(Nc2ccc(C(F)(F)F)cc2)cnc2nonc12 [7s, 6-((4-(Trifluoromethyl)phenyl)amino)-[1,2,5]oxadiazolo[3,4-b]pyridin-7-ol] | 35 ± 1.7 µM | 43% | 
Oc1c(Nc2cccc(C(F)(F)F)c2)cnc2nonc12 [7r, 6-((3-(Trifluoromethyl)phenyl)amino)-[1,2,5]oxadiazolo[3,4-b]pyridin-7-ol] | 22 ± 1.8 µM | 48% | 
Oc1c(-c2cccs2)cnc2nonc12 [9g, 6-(Thiophen-2-yl)-[1,2,5]oxadiazolo[3,4-b]pyridin-7-ol] | 40 ± 0.3 µM | 36% | uncoupling (OCR) activity in words: poor activity
Oc1c(Nc2cccc(C(F)(F)F)c2F)cnc2nonc12 [7ab, 6-((2-Fluoro-3-(trifluoromethyl)phenyl)amino)-[1,2,5]oxadiazolo[3,4-b]pyridin-7-ol] | 43 ± 5.2 µM | 71% | 
Oc1c(Nc2ccc(-c3ccccc3F)cc2)cnc2nonc12 [7ak, 6-((2′-Fluoro-[1,1′-biphenyl]-4-yl)amino)-[1,2,5]oxadiazolo[3,4-b]pyridin-7-ol] |  |  | uncoupling (OCR) activity in words: not tolerated
